Key:
[1] = Zeta potential of lipid nanoparticles; format: physicochemical
Procedure: (§1) The average particle size (number average value), ζ-average particle size, and polydispersity index (PdI) of the lipid nanoparticles in PBS(-) (pH 7.4), and the zeta potential in 10 mM HEPES buffer (pH 7.4) were measured using an analyzer "Zetasizer Nano ZS ZEN3600" (manufactured by Malvern) utilizing dynamic light scattering.

[2] = Encapsulation rate of lipid nanoparticles (Ribogreen); format: physicochemical
Procedure: The encapsulation rate of the lipid nanoparticles was determined by measuring the amount of encapsulated nucleic acid (mRNA) using Ribogreen (manufactured by Life Technologies), which is an RNA intercalator. The mRNA amount was quantified based on a calibration curve prepared from a series of diluted mRNA solutions at known concentrations.
Specifically, 10 mM HEPES buffer (pH 7.4), 10 w/v% Triton X-100, and Ribogreen were mixed at 978.8 µL, 20 µL, and 1.25 µL per 10 wells, respectively, to obtain a Triton(+) buffer. A Triton(-) buffer was obtained in replacing Triton X-100 with 10 mM HEPES buffer (pH 7.4). 100 µL/well of the sample was added to a black 96-well plate for fluorescence measurement, and 100 µL/well of Triton(+) buffer or Triton(-) buffer was added. After the plate was gently shaken on a shaking incubator (SI-300, manufactured by AS ONE) (700 rpm, 30 seconds), the fluorescence intensity of each well was measured using a microplate reader (VARIOSKAN LUX, manufactured by Thermo Fisher Scientific) (wavelength Ex/Em=500 nm/525 nm), and the nucleic acid encapsulation rate (%) was calculated.

[3] = Apparent pKa of lipid nanoparticles (TNS)
Procedure: The apparent pKa of the lipid nanoparticles was measured using p-toluenesulfonic acid (TNS). First, TNS (final concentration: 0.75 µM) and lipid nanoparticles (final concentration: 30 µM) were mixed in a buffer (200 mL) adjusted to each pH (pH 3.5 to 9.5). As the buffer, 20 mM citrate buffer, 20 mM sodium phosphate buffer, or 20 mM Tris-HCl buffer containing 130 mM NaCl was used. The fluorescence intensity of the prepared mixture was measured using a fluorescence spectrophotometer (Varioskan Lux, manufactured by Thermo Fisher Scientific) with the settings of λex=321 nm and λem=447 nm. Among the measured values, the highest value and the lowest value were set as 100% and 0% ionization degrees, respectively, and the pH showing a 50% ionization degree was calculated as the apparent pKa. The content ratio (%) of cationically charged pH-sensitive cationic lipid was calculated using the Henderson-Hasselbalch equation.

liver = experiment: EGFP expression in liver tissue sections of mice administered EGFP mRNA-loaded lipid nanoparticles (confocal microscopy); format: in vivo, Balb/c mice; details: Example 27, Fig. 6; EGFP mRNA-loaded lipid nanoparticles TxT/DSPC/chol/PEG-DMG=50/3/47/1.5 (mol%); 24 hours post-administration
Procedure: Subsequently, each EGFP mRNA-loaded lipid nanoparticle was administered to Balb/c mice at a dose of 0.2 mg mRNA/kg. At 23 hours and 50 minutes post-administration, fluorescently labeled lectin (DyLight-649 Lycopersicon (Tomato) Lectin) was intravenously injected via the tail vein at 40 µg/mouse to fluorescently label vascular endothelial cells. At 24 hours after administration of the lipid nanoparticles, the mice were euthanized, and their livers were collected to prepare tissue sections. For nuclear staining, the tissue sections were immersed in a nuclear staining solution (1 µg/mL Hoechst 33342 dissolved in PBS(-)), cooled on ice, and incubated for at least 30 minutes in the dark. The stained tissue sections were then observed using a confocal laser scanning microscope. Subsequently, in the same manner as Example 26, each EGFP mRNA-loaded lipid nanoparticle was administered to Balb/c mice. At 23 hours and 50 minutes post-administration, fluorescently labeled lectin was administered. At 24 hours after administration of the lipid nanoparticles, the mice were euthanized, and their livers were collected to prepare tissue sections. Each tissue section was observed using a confocal laser scanning microscope. In the figure, the upper panels show fluorescence images of EGFP, and the lower panels show fluorescence images of vascular endothelial cells (fluorescently labeled lectin).

[4] = Average particle size and polydispersity index of lipid nanoparticles (dynamic light scattering); format: physicochemical
Procedure: as §1

[5] = Table 1, Fluc mRNA-loaded lipid nanoparticles, TxT/DSPC/chol/PEG-DMG=50/15/35/1.5 (mol%)
[6] = Table 3, Fluc mRNA-loaded lipid nanoparticles, TxT/DSPC/chol/PEG-DMG=50/3/47/1.5 (mol%)
[7] = Table 5, EGFP mRNA-loaded lipid nanoparticles, TxT/DSPC/chol/PEG-DMG=50/3/47/1.5 (mol%), total flow rate 3.0 mL/min
[8] = Table 6 (Example 28), Fluc mRNA-loaded lipid nanoparticles, TxT/DSPC/chol/PEG-DMG=50/3/47/1.5 (mol%)
[9] = Table 7, hEPO mRNA-loaded lipid nanoparticles, TxT/DSPC/chol/PEG-DMG=50/3/47/1.5, SM-102/DSPC/chol/PEG-DMG=50/10/40/1.5 (mol%)
[10] = Table 8 (Example 32), lipid nanoparticles for TTR-targeted genome editing, Cas9-mRNA and TTR-gRNA 1:2 (N/P = 6.0), TxT/DSPC/chol/PEG-DMG = 50/3/47/1.5 (mol%)

CCCCCCC(CCCC)CNC(=O)CCCC(=O)OCC(COC(=O)CCCC(=O)NCC(CCCC)CCCCCC)(COC(=O)CCCC(=O)NCC(CCCC)CCCCCC)NC(=O)CCN1CCCCC1 (stereo not drawn) [TxT-5-5A12β, 2-(((5-((2-butyloctyl)amino)-5-oxopentanoyl)oxy)methyl)-2-(3-(piperidin-1-yl)propanamido)propane-1,3-diyl bis(5-((2-butyloctyl)amino)-5-oxopentanoate)]
ζ-potential [1, 5]: -6.0 mV | ζ-potential [1, 6]: -5.6 mV | ζ-potential [1, 7]: -7.8 mV | ζ-potential [1, 8]: -8.4 mV | ζ-potential [1, 9]: -3.0 mV | ζ-potential [1, 10]: -3.8 mV | mRNA concentration [2, 5]: 0.024 µg/µL | mRNA encapsulation rate [2, 5]: 97.0% | mRNA concentration [2, 6]: 0.023 µg/µL | mRNA encapsulation rate [2, 6]: 99.5% | mRNA concentration [2, 7]: 0.016 µg/µL | mRNA encapsulation rate [2, 7]: 99.1% | mRNA concentration [2, 8]: 0.020 µg/µL | mRNA encapsulation rate [2, 8]: 98.0% | mRNA concentration [2, 9]: 0.017 µg/µL | mRNA encapsulation rate [2, 9]: 99.5% | mRNA concentration [2, 10]: 0.412 µg/µL | mRNA encapsulation rate [2, 10]: 99.1% | pKa ([3]; Table 1, apparent pKa of Fluc mRNA-loaded lipid nanoparticles, TxT/DSPC/chol/PEG-DMG=50/15/35/1.5 (mol%)): 4.90 | pKa [3, 6]: 6.53 | fluorescence of EGFP in the liver tissues (liver): fluorescence of EGFP was observed | gene expression in hepatocytes (liver): notably high levels of gene expression | average particle diameter, comparison among TxT lipids ([4]; Example 32, Table 8, lipid nanoparticles for TTR-targeted genome editing): largest | Pdl [4, 5]: 0.08 | number average particle size [4, 5]: 82.8 nm | ζ-average particle size [4, 5]: 111.9 nm | Pdl [4, 6]: 0.08 | number average particle size [4, 6]: 72.8 nm | ζ-average particle size [4, 6]: 96.0 nm | Pdl [4, 7]: 0.05 | number average particle size [4, 7]: 81.9 nm | ζ-average particle size [4, 7]: 104.0 nm | Pdl [4, 8]: 0.06 | number average particle size [4, 8]: 71.2 nm | ζ-average particle size [4, 8]: 92.0 nm | Pdl [4, 9]: 0.10 | number average particle size [4, 9]: 66.9 nm | ζ-average particle size [4, 9]: 88.9 nm | Pdl [4, 10]: 0.02 | number average particle size [4, 10]: 71.3 nm | ζ-average particle size [4, 10]: 87.8 nm
